Laboratory results from patent publication US20230265116A1, “DEGRADATION OF (EGFR) BY CONJUGATION OF EGFR INHIBITORS WITH E3 LIGASE LIGAND AND METHODS OF USE” (BEIGENE, LTD., priority 2020, published 2023).

How the values were obtained:
Assay type in all cases: cell-based
[1] = test system: EGFR Del19/T790M/C797S (BaF3-DTC cells); experiment: EGFR degradation HTRF assay, BaF3-DTC cells; conditions: 16h treatment; for DTC Dmax (%): maximum percentage of degradation; for DC50: read-out: DTC DC50
Outline: (§1)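 EGFR remaining after a 16 h, 37 °C exposure (8 doses, 5-fold steps from 10 uM final, 0.2% DMSO) was quantified by HTRF antibodies in cell lysate. Percent inhibition relative to DMSO control was fitted by four-parameter logistic to give DC50; Dmax denotes maximal degradation.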

[2] = target: T1, EGFR L858R/T790M/C797S (BaF3-LTC cells) (Homo sapiens, UniProt P00533, C797S/L858R/T790M); experiment: EGFR degradation HTRF assay, BaF3-LTC cells; conditions: BaF3-LTC, 16h treatment; for Dmax: maximum percentage of degradation, read-out: LTC Dmax (%); for DC50: read-out: LTC DC50
T1 construct: expressed in transfected cells; host or cells: BaF3
T1 sequence (P00533 25-1210 T790M/C797S/L858R): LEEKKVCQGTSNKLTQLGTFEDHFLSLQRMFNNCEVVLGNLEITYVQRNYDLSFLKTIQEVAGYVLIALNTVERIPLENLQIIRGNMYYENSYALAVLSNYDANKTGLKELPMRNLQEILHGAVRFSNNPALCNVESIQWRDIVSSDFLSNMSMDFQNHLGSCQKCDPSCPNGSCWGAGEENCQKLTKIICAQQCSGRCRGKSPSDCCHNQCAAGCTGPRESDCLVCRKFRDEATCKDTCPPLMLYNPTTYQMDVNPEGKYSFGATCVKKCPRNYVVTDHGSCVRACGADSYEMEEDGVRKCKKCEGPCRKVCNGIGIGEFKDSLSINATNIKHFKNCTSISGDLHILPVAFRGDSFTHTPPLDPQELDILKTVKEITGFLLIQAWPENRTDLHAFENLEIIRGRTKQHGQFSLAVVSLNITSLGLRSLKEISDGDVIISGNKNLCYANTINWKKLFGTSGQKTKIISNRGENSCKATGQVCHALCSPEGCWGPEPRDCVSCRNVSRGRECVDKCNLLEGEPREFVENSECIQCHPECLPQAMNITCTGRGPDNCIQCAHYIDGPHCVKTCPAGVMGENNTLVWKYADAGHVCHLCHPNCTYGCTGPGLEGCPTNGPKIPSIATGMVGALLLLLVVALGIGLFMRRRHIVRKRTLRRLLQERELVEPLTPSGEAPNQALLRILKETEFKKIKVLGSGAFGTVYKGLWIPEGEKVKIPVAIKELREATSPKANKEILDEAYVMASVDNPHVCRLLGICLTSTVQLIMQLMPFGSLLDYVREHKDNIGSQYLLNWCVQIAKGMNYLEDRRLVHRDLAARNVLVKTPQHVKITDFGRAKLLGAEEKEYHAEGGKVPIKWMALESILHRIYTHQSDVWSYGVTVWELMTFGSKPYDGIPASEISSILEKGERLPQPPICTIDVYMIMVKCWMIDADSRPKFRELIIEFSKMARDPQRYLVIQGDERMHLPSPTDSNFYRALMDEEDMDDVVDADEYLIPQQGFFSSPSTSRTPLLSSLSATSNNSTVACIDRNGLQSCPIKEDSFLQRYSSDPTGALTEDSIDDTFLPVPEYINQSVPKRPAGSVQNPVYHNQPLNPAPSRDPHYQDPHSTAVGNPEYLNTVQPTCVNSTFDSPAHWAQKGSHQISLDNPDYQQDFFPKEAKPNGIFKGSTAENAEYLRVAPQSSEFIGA
Outline: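 Cells treated 16 h at 37 °C, 5% CO2 in medium with 0.2% DMSO; top final concentration 10 uM, 5-fold dilution, 8 doses. Lysates read by HTRF (665/620 nm); degradation % versus DMSO high control, DC50 from four-parameter fit, Dmax as maximal degradation.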

[3] = target: T2, EGFR L858R/T790M (H1975-clone #36, homozygous) (Homo sapiens, UniProt P00533, L858R/T790M); experiment: EGFR degradation HTRF assay, H1975-clone #36 cells; conditions: H1975 #36, 16h treatment; for Dmax: NCI-H1975, maximum percentage of degradation
T2 construct: designed to specifically target WT EGFR but preserve the L858R/T790M copy; host or cells: H1975-clone #36
T2 sequence (P00533 25-1210 T790M/L858R): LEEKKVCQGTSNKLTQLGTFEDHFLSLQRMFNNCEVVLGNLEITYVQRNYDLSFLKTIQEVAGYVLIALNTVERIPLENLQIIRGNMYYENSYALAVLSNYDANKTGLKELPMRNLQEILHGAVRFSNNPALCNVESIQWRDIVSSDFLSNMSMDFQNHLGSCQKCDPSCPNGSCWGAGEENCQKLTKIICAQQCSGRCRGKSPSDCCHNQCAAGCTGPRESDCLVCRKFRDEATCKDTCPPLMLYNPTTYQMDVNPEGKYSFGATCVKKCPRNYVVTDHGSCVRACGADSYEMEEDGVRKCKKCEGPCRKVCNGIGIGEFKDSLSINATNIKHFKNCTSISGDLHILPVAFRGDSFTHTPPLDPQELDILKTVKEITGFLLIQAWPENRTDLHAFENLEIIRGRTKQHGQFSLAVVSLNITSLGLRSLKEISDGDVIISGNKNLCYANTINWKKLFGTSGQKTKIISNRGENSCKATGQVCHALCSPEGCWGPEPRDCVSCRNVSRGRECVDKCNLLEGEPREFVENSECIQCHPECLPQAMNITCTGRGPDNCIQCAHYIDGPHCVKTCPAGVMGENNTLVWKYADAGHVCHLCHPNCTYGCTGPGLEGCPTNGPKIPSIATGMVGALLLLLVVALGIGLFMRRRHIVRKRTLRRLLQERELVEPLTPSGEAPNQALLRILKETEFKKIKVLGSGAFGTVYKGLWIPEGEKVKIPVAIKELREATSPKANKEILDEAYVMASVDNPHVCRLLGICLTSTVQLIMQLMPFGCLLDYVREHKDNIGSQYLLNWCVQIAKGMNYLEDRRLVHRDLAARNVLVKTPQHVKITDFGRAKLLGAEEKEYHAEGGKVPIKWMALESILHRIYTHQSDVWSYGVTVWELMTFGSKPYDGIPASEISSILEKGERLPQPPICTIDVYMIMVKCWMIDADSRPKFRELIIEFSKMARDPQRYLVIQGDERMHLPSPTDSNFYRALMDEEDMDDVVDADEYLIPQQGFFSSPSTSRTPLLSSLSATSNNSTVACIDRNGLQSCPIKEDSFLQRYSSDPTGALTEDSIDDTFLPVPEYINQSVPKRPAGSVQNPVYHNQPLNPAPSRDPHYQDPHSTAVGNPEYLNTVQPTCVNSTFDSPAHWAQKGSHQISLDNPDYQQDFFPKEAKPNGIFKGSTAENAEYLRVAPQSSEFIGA
Outline: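 H1975 clone #36, made homozygous for L858R/T790M EGFR by knockout of the WT allele, treated 16 h at 37 °C with compound in 0.2% DMSO medium. Eight doses from 10 uM, 5-fold dilutions. EGFR measured by HTRF in lysates. DC50 and Dmax fitted against DMSO controls.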

[4] = target: T3, EGFR (HCC827 cells) (Homo sapiens, UniProt P00533, DEL746-750); experiment: EGFR degradation HTRF assay, HCC827 cells; conditions: HCC827, 16h treatment; for Dmax: maximum percentage of degradation
T3 construct: endogenous in cells; host or cells: HCC827
T3 sequence (P00533 with tags, fused parts or gaps DEL746-750): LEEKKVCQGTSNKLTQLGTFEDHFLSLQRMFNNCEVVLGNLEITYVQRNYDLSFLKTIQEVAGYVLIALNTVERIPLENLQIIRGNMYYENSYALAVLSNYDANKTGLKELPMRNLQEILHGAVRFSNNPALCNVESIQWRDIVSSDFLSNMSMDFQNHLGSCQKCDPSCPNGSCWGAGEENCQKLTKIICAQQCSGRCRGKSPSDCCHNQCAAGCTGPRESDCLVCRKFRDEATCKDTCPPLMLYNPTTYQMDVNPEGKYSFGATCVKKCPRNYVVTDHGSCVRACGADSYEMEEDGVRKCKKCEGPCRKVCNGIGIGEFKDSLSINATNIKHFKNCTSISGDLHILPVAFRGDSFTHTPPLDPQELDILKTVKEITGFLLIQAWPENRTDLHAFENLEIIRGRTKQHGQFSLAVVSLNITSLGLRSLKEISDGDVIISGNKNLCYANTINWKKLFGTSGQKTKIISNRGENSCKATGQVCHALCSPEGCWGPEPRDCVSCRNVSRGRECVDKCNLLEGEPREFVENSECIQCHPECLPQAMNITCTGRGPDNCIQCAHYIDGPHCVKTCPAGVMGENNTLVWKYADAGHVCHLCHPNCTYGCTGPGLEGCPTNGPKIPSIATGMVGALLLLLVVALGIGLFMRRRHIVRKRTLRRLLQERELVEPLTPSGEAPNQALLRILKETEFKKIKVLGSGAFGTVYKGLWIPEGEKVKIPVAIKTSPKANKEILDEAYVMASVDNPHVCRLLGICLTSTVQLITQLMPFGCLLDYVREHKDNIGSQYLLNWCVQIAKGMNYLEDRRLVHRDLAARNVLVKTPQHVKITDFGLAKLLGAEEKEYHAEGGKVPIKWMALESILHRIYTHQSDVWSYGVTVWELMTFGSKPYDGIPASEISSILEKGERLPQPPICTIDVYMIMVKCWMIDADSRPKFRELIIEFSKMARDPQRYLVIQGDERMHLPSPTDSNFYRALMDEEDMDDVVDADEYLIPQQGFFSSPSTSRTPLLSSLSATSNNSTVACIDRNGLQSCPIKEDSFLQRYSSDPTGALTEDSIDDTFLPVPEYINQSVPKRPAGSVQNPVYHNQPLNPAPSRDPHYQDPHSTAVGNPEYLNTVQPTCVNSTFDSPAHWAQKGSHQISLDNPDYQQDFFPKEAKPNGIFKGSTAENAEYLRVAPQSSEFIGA
Outline: as §1

Structure (SMILES)	DC50 [1] [nM]	Dmax [2] [%]	DC50 [2] [nM]	DC50 [3] [nM]	Dmax [3] [%]	DC50 [4] [nM]	Dmax [4] [%]	DTC Dmax (%) [1] [%]
CCc1cc(Nc2ncc(Br)c(Nc3ccc4nccnc4c3P(C)(C)=O)n2)c(OC)cc1N1CCC(N2CCN(CC3CN(c4ccc5c(c4)CN(C4CCC(=O)NC4=O)C5=O)C3)CC2)CC1 (stereo not drawn) [Example 160, 3-(5-(3-((4-(1-(4-((5-bromo-4-((5-(dimethylphosphoryl)quinoxalin-6-yl)amino)pyrimidin-2-yl)amino)-2-ethyl-5-methoxyphenyl)piperidin-4-yl)piperazin-1-yl)methyl)azetidin-1-yl)-1-oxoisoindolin-2-yl)piperidine-2,6-dione]	6.95	92.9	18.1	3.07	76.8	2.69	81.7	94.14
CCc1cc(Nc2ncc(Br)c(Nc3ccc4nccnc4c3P(C)(C)=O)n2)c(OC)cc1N1CCC(N2CCN(CC3CCN(c4ccc(C5CCC(=O)NC5=O)cc4)C3)CC2)CC1 (stereo not drawn) [Example 168, 3-(4-(3-((4-(1-(4-((5-bromo-4-((5-(dimethylphosphoryl)quinoxalin-6-yl)amino)pyrimidin-2-yl)amino)-2-ethyl-5-methoxyphenyl)piperidin-4-yl)piperazin-1-yl)methyl)pyrrolidin-1-yl)phenyl)piperidine-2,6-dione]	22.4	86.4	47	1.61	62.4	4.85	81.2	88.5
CCc1cc(Nc2ncc(Br)c(Nc3ccc4nccnc4c3P(C)(C)=O)n2)c(OC)cc1N1CCC(N2CCN(C[C@H]3CCN(c4ccc(C5CCC(=O)NC5=O)cc4)C3)CC2)CC1 (stereo partly drawn) [Example 220, 3-(4-((R)-3-((4-(1-(4-((5-bromo-4-((5-(dimethylphosphoryl)quinoxalin-6-yl)amino)pyrimidin-2-yl)amino)-2-ethyl-5-methoxyphenyl)piperidin-4-yl)piperazin-1-yl)methyl)pyrrolidin-1-yl)phenyl)piperidine-2,6-dione]	18.2	88.8	43.2	8.8	85.6	5.1	77.7	86
CCc1cc(Nc2ncc(Br)c(Nc3ccc4nccnc4c3P(C)(C)=O)n2)c(OC)cc1N1CCC(N2CCN(C[C@@H]3CCN(c4ccc(C5CCC(=O)NC5=O)cc4)C3)CC2)CC1 (stereo partly drawn) [Example 221, 3-(4-((S)-3-((4-(1-(4-((5-bromo-4-((5-(dimethylphosphoryl)quinoxalin-6-yl)amino)pyrimidin-2-yl)amino)-2-ethyl-5-methoxyphenyl)piperidin-4-yl)piperazin-1-yl)methyl)pyrrolidin-1-yl)phenyl)piperidine-2,6-dione]	15.7	84.2	36.1	6.46	61	5.15	75.3	87.37
CCc1cc(Nc2ncc(Br)c(Nc3ccc4nccnc4c3P(C)(C)=O)n2)c(OC)cc1N1CCC(N2CCN(C(=O)[C@H]3C[C@H](N(C)c4ccc(C5CCC(=O)NC5=O)cc4)C3)CC2)CC1 (stereo partly drawn) [Example 247, 3-(4-(((1r,3r)-3-(4-(1-(4-((5-bromo-4-((5-(dimethylphosphoryl)quinoxalin-6-yl)amino)pyrimidin-2-yl)amino)-2-ethyl-5-methoxyphenyl)piperidin-4-yl)piperazine-1-carbonyl)cyclobutyl)(methyl)amino)phenyl)piperidine-2,6-dione]	6.37	83.1	18.6	5.1	72.8	4.59	67	86.93
CCc1cc(Nc2ncc(Br)c(Nc3ccc4nccnc4c3P(C)(C)=O)n2)c(OC)cc1N1CCC(N2CCN(C(=O)[C@@H]3CCN(c4cc(F)c(C5CCC(=O)NC5=O)c(F)c4)C3)CC2)CC1 (stereo partly drawn) [Example 255, 3-(4-((R)-3-(4-(1-(4-((5-bromo-4-((5-(dimethylphosphoryl)quinoxalin-6-yl)amino)pyrimidin-2-yl)amino)-2-ethyl-5-methoxyphenyl)piperidin-4-yl)piperazine-1-carbonyl)pyrrolidin-1-yl)-2,6-difluorophenyl)piperidine-2,6-dione]	5.62	83.4	17.3	3.27	90.2	2.87	78.5	96.33
CCc1cc(Nc2ncc(Br)c(Nc3ccc4c(=O)n(C)ncc4c3P(C)(C)=O)n2)c(OC)cc1N1CCC(N2CCN(CCC3CCN(c4cc(F)c(C5CCC(=O)NC5=O)c(F)c4)CC3)CC2)CC1 (stereo not drawn) [Example 270, 3-(4-(4-(2-(4-(1-(4-((5-bromo-4-((5-(dimethylphosphoryl)-2-methyl-1-oxo-1,2-dihydrophthalazin-6-yl)amino)pyrimidin-2-yl)amino)-2-ethyl-5-methoxyphenyl)piperidin-4-yl)piperazin-1-yl)ethyl)piperidin-1-yl)-2,6-difluorophenyl)piperidine-2,6-dione]	6.97	84.2	24	17.1	84.6	5.43	89	91.36

Compounds with a lower DC50 [1], results first:

DC50 [1] [nM]	Dmax [2] [%]	DC50 [2] [nM]	DC50 [3] [nM]	Dmax [3] [%]	DC50 [4] [nM]	Dmax [4] [%]	Structure (SMILES)	DTC Dmax (%) [1] [%]
4.85	85.4	1.72	3.12	85.8	2.06	75.7	CCc1cc(Nc2ncc(Br)c(Nc3ccc4nccnc4c3P(C)(C)=O)n2)c(OC)cc1N1CCC(N2CCN(C(=O)C3CN(c4ccc5c(c4)C(=O)N(C4CCC(=O)NC4=O)C5=O)C3)CC2)CC1 (stereo not drawn) [Example 64, 5-(3-(4-(1-(4-((5-bromo-4-((5-(dimethylphosphoryl)quinoxalin-6-yl)amino)pyrimidin-2-yl)amino)-2-ethyl-5-methoxyphenyl)piperidin-4-yl)piperazine-1-carbonyl)azetidin-1-yl)-2-(2,6-dioxopiperidin-3-yl)isoindoline-1,3-dione]	90.07
4.71	87.9	13.3	9.74	74.8	6.2	76.7	CCc1cc(Nc2ncc(Br)c(Nc3ccc4nccnc4c3P(C)(C)=O)n2)c(OC)cc1N1CCC(N2CCN(C(=O)C3CCN(c4ccc5c(c4)C(=O)N(C4CCC(=O)NC4=O)C5=O)CC3)CC2)CC1 (stereo not drawn) [Example 67, 5-(4-(4-(1-(4-((5-bromo-4-((5-(dimethylphosphoryl)quinoxalin-6-yl)amino)pyrimidin-2-yl)amino)-2-ethyl-5-methoxyphenyl)piperidin-4-yl)piperazine-1-carbonyl)piperidin-1-yl)-2-(2,6-dioxopiperidin-3-yl)isoindoline-1,3-dione]	94.22
1.94	87.5	4.8	0.65	69.6	3.21	65.9	CCc1cc(Nc2ncc(Br)c(Nc3ccc4nccnc4c3P(C)(C)=O)n2)c(OC)cc1N1CCC(N2CCN(C(=O)C3CCN(c4ccc5c(c4)C(C)(C)C(=O)N5C4CCC(=O)NC4=O)CC3)CC2)CC1 (stereo not drawn) [Example 219, 3-(5-(4-(4-(1-(4-((5-bromo-4-((5-(dimethylphosphoryl)quinoxalin-6-yl)amino)pyrimidin-2-yl)amino)-2-ethyl-5-methoxyphenyl)piperidin-4-yl)piperazine-1-carbonyl)piperidin-1-yl)-3,3-dimethyl-2-oxoindolin-1-yl)piperidine-2,6-dione]	93
3.41	75.6	21.3	7.03	69	3.71	78.5	CCc1cc(Nc2ncc(Br)c(Nc3ccc4nccnc4c3P(C)(C)=O)n2)c(OC)cc1N1CCC(N2CCN(C(=O)CC3CN(c4ccc5c(c4)C(=O)N(C4CCC(=O)NC4=O)C5=O)C3)CC2)CC1 (stereo not drawn) [Example 222, 5-(3-(2-(4-(1-(4-((5-bromo-4-((5-(dimethylphosphoryl)quinoxalin-6-yl)amino)pyrimidin-2-yl)amino)-2-ethyl-5-methoxyphenyl)piperidin-4-yl)piperazin-1-yl)-2-oxoethyl)azetidin-1-yl)-2-(2,6-dioxopiperidin-3-yl)isoindoline-1,3-dione]	83.72
4.98	84.7	15.9	3.61	75.5	3.14	77.7	CCc1cc(Nc2ncc(Br)c(Nc3ccc4nccnc4c3P(C)(C)=O)n2)c(OC)cc1N1CCC(N2CCN(C(=O)C3CCN(c4cc(F)c(C5CCC(=O)NC5=O)c(F)c4)CC3)CC2)CC1 (stereo not drawn) [Example 254, 3-(4-(4-(4-(1-(4-((5-bromo-4-((5-(dimethylphosphoryl)quinoxalin-6-yl)amino)pyrimidin-2-yl)amino)-2-ethyl-5-methoxyphenyl)piperidin-4-yl)piperazine-1-carbonyl)piperidin-1-yl)-2,6-difluorophenyl)piperidine-2,6-dione]	92.55
